This is an account of results in EP4752152A1, “STEROID COMPOUND, AND PREPARATION METHOD THEREFOR AND USE THEREOF” (Cholesgen (Shanghai) Co.Ltd., priority 2023, dated 2025).

Values after ≈ are worked out from the molar mass of the structure shown. Read-outs that look alike come from different tables or passages of the source. A value given as a limit tells only on which side of the number the result lay.

The test system of data set [1] is SREBP pathway. In words: SREBP luciferase reporter gene system (SRE-luciferase assay). Particulars: Huh-7/SRE-luc cells, sterol-deficient medium, 0.01-10 µM. The data set is classed as cell-based, human. The method, boiled down:
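Huh-7 cells stably carrying LDLR promoter-luciferase plus GFP were treated 16 h in sterol-deficient medium (5% lipoprotein-deficient serum, 2 µM lovastatin, 10 µM mevalonic acid) at 0.01–10 µM. Luciferase/GFP ratio measured as pathway activity; inhibition versus DMSO fitted to a four-parameter model for IC50.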
(In general: Reporter assays use an easily measured gene product as a stand-in for the process of interest.)

Data set [2] in a line: Solubility in fasted-state simulated intestinal fluid (FaSSIF). Particulars: FaSSIF, pH 6.5, fassif, kinetic from dmso stock, FaSSIF pH 6.5, 300 µM sample solution, room temperature. Type of data set: physicochemical. The procedure: Compound powder was dissolved in DMSO to prepare a 10.0 mM stock solution for later use. 0.021 g NaOH, 0.198 g NaH2PO4, and 0.309 g NaCl were weighed and added to 50.0 mL of ultrapure water. After thorough mixing, the pH was adjusted to 6.5 using HCl or NaOH. Then, 0.112 g of FaSSIF powder was added. After complete dissolution, the solution was allowed to stand at room temperature for 2 hours for later use. A certain volume of the compound stock solution was added to a certain volume of FaSSIF to prepare a 300 µM sample solution, which was mixed at room temperature under 1000 rpm for 1 hour. After 1 hour, the sample was centrifuged, and a certain volume of supernatant was taken. The termination solution was added to precipitate the sample, which was then thoroughly mixed and centrifuged for 20 minutes. The supernatant was then taken again, diluted with dilution solution, and then analyzed by liquid chromatography-tandem mass spectrometry (LC-MS/MS). The concentration of the test compound in the samples was quantitatively determined using LC-MS/MS. Table 3: FaSSIF solubility results of compounds from some examples

The subject of data set [3] is Fatty Acid Synthase (FASN) gene. The data set is described as follows: Inhibition of FASN gene expression (qPCR) in Huh-7 cells. Type of data set: cell-based, human. Particulars: Huh-7 cells, starvation medium, 16 hours, qPCR, class symbols, read-out: FASN IC50. The method, boiled down:
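Huh-7 cells switched to starvation DMEM (5% LPDS, 2 µM lovastatin, 10 µM mevalonate) and treated 16 h with compound, top 3000 nM, 3-fold dilutions, 5 concentrations. FASN mRNA by RT-qPCR; inhibition relative to DMSO, IC50 from four-parameter fit.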
A general note: Quantitative PCR measures a nucleic acid by following its amplification.

For orientation: IC50 means the concentration that gives 50% inhibition. What is called solubility is how much of the substance goes into solution per volume. As to `CCOc1nc(F)ccc1[C@H](O)CCC[C@@H](C)[C@H]1CC[C@H]2[C@H]3[C@H](CC[C@]12C)[C@@]1(C)CC[C@H](O)[C@H](O)[C@@H]1CC3(F)F` (single isomer, unassigned) [Compound 283], the IC50 in data set [1] (Homo sapiens, Huh-7, 16 h) is 0.027 µM; in data set [3] (Homo sapiens, Huh-7, 16 h), < 0.2 µM. In addition, the solubility at 1 h in data set [2] was 288 µM (≈ 163 µg/mL).

Consider `COc1nc(F)ccc1[C@H](O)CC[C@@H](C)[C@H]1CC[C@H]2[C@H]3[C@H](CC[C@]12C)[C@@]1(C)CC[C@H](O)[C@H](O)[C@@H]1CC3(F)F` [Compound 338, (1R,3aS,3bS,5aR,6R,7S,9aR,9bS,11aR)-4,4-difluoro-1-[(2R,5R)-5-(6-fluoro-2-methoxypyridin-3-yl)-5-hydroxypentan-2-yl]-9a,11a-dimethylhexadecahydro-1H-cyclopenta[1,2-a]phenanthrene-6,7-diol], for which the IC50 in data set [1] (Homo sapiens, Huh-7, 16 h) was 0.143 µM; in data set [3] (Homo sapiens, Huh-7, 16 h) it was < 0.2 µM. The compound further yielded a solubility at 1 h in data set [2] of 34.7 µM (≈ 18.7 µg/mL).

As to `COc1nc(F)ccc1[C@@H](O)CC[C@@H](C)[C@H]1CC[C@H]2[C@H]3[C@H](CC[C@]12C)[C@@]1(C)CC[C@H](O)[C@H](O)[C@@H]1CC3(F)F` [Compound 337, (1R,3aS,3bS,5aR,6R,7S,9aR,9bS,11aR)-4,4-difluoro-1-[(2R,5S)-5-(6-fluoro-2-methoxypyridin-3-yl)-5-hydroxypentan-2-yl]-9a,11a-dimethylhexadecahydro-1H-cyclopenta[1,2-a]phenanthrene-6,7-diol], the IC50 in data set [1] (Homo sapiens, Huh-7, 16 h) is 0.155 µM; in data set [3] (Homo sapiens, Huh-7, 16 h), < 0.2 µM. Besides, in data set [2], the concentration in solution (solubility at 1 h) came to 246 µM (≈ 133 µg/mL).

For `C[C@H](CCCC(O)c1cccc2c1cnn2C)[C@H]1CC[C@H]2[C@H]3[C@H](CC[C@]12C)[C@@]1(C)CC[C@H](O)[C@H](O)[C@@H]1CC3(F)F` (single isomer, unassigned) [Compound 249, (1R,3aS,3bS,5aR,6R,7S,9aR,9bS,11aR)-4,4-difluoro-1-[(2R,6S)-6-hydroxy-6-(1-methylindazol-4-yl)hexan-2-yl]-9a,11a-dimethylhexadecahydro-1H-cyclopenta[1,2-a]phenanthrene-6,7-diol or (1R,3aS,3bS,5aR,6R,7S,9aR,9bS,11aR)-4,4-difluoro-1-[(2R,6R)-6-hydroxy-6-(1-methylindazol-4-yl)hexan-2-yl]-9a,11a-dimethylhexadecahydro-1H-cyclopenta[1,2-a]phenanthrene-6,7-diol], the half-inhibitory concentration (IC50) in data set [1] (Homo sapiens, Huh-7, 16 h) stood at 0.058 µM. Also, the concentration in solution in data set [2] (solubility at 1 h) was 38.6 µM (≈ 21.6 µg/mL).

`C[C@H](CCCC(O)c1cccc2c1OC(F)(F)O2)[C@H]1CC[C@H]2[C@H]3[C@H](CC[C@]12C)[C@@]1(C)CC[C@H](O)[C@H](O)[C@@H]1CC3(F)F` (single isomer, unassigned) [Compound 195, (1R,3aS,3bS,5aR,6R,7S,9aR,9bS,11aR)-1-[(2R,6R)-6-(2,2-difluorobenzo[d][1,3]dioxol-4-yl)-6-hydroxyhexan-2-yl]-4,4-difluoro-9a,11a-dimethylhexadecahydro-1H-cyclopenta[1,2-a]phenanthrene-6,7-diol or (1R,3aS,3bS,5aR,6R,7S,9aR,9bS,11aR)-1-[(2R,6S)-6-(2,2-difluorobenzo[d][1,3]dioxol-4-yl)-6-hydroxyhexan-2-yl]-4,4-difluoro-9a,11a-dimethylhexadecahydro-1H-cyclopenta[1,2-a]phenanthrene-6,7-diol]: the values for the IC50 in data set [1] (16 hours) and in data set [3] were 0.067 µM and < 0.2 µM, respectively. The compound also came in with a solubility at 1 h in data set [2] of 244 µM (≈ 143 µg/mL).

As for `COc1cc(F)nc(F)c1[C@@H](O)CCC[C@@H](C)[C@H]1CC[C@H]2[C@H]3[C@H](CC[C@]12C)[C@@]1(C)CC[C@H](O)[C@H](O)[C@@H]1CC3(F)F` (single isomer, unassigned) [Compound 234], the IC50 was 0.029 µM in data set [1] (Homo sapiens, Huh-7, 16 h) and < 0.2 µM in data set [3] (Homo sapiens, Huh-7, 16 h). In data set [2], this compound came in with a solubility at 1 h of 49.3 µM (≈ 28.2 µg/mL).

In the case of `C[C@H](CCCC(O)c1cccc2cn[nH]c12)[C@H]1CC[C@H]2[C@H]3[C@H](CC[C@]12C)[C@@]1(C)CC[C@H](O)[C@H](O)[C@@H]1CC3(F)F` (stereo partly drawn) [Compound 224, (1R,3aS,3bS,5aR,6R,7 S,9aR,9bS,11aR)-4,4-Difluoro-1-[(2R)-6-hydroxy-6-(1H-indazol-7-yl)hexan-2-yl]-9a,11a-dimethylhexadecahydro-1H-cyclopenta[1,2-a]phenanthrene-6,7-diol], in data set [1] (Homo sapiens, Huh-7, 16 h), the IC50 is 0.055 µM. In data set [2], this compound displayed a solubility at 1 h of 48 µM (≈ 26.1 µg/mL).

`C[C@H](CCCC(O)c1cccc2ncn(C)c12)[C@H]1CC[C@H]2[C@H]3[C@H](CC[C@]12C)[C@@]1(C)CC[C@H](O)[C@H](O)[C@@H]1CC3(F)F` (single isomer, unassigned) [Compound 298, (1R,3aS,3bS,5aR,6R,7S,9aR,9bS,11aR)-4,4-difluoro-1-[(2R,6S)-6-hydroxy-6-(3-methylbenzo[d]imidazol-4-yl)hexan-2-yl]-9a,11a-dimethylhexadecahydro-1H-cyclopenta[1,2-a]phenanthrene-6,7-diol or (1R,3aS,3bS,5aR,6R,7S,9aR,9bS,11aR)-4,4-difluoro-1-[(2R,6R)-6-hydroxy-6-(3-methylbenzo[d]imidazol-4-yl)hexan-2-yl]-9a,11a-dimethylhexadecahydro-1H-cyclopenta[1,2-a]phenanthrene-6,7-diol]: the IC50 in data set [1] (16 hours) is 0.093 µM. The compound further had a solubility at 1 h in data set [2] of 18.2 µM (≈ 10.2 µg/mL).

On to `C[C@H](CCCC(O)c1ccc(F)nc1OC1CC1)[C@H]1CC[C@H]2[C@H]3[C@H](CC[C@]12C)[C@@]1(C)CC[C@H](O)[C@H](O)[C@@H]1CC3(F)F` (stereo partly drawn) [Compound 328, (1R,3aS,3bS,5aR,6R,7S,9aR,9bS,11aR)-1-[(2R)-6-[2-(cyclopropyloxy)-6-fluoropyridin-3-yl]-6-hydroxyhexan-2-yl]-4,4-difluoro-9a,11a-dimethylhexadecahydro-1H-cyclopenta[1,2-a]phenanthrene-6,7-diol], for which the IC50 in data set [1] (Homo sapiens, Huh-7, 16 h) worked out at 0.043 µM. The solubility at 1 h in data set [2] was 263 µM (≈ 152 µg/mL).

Consider `COc1cc(F)nc(OC)c1[C@@H](O)CCC[C@@H](C)[C@H]1CC[C@H]2[C@H]3[C@H](CC[C@]12C)[C@@]1(C)CC[C@H](O)[C@H](O)[C@@H]1CC3(F)F` (single isomer, unassigned) [Compound 263], for which the IC50 in data set [1] (Homo sapiens, Huh-7, 16 h) was 0.032 µM; in data set [3] (Homo sapiens, Huh-7, 16 h), < 0.2 µM. Besides, in data set [2], the concentration in solution (solubility at 1 h) came to 63 µM (≈ 36.8 µg/mL).

As to `COc1nc(F)cnc1C(O)CCC[C@@H](C)[C@H]1CC[C@H]2[C@H]3[C@H](CC[C@]12C)[C@@]1(C)CC[C@H](O)[C@H](O)[C@@H]1CC3(F)F` (stereo partly drawn) [Compound 175, (1R,3aS,3bS,5aR,6R,7S,9aR,9bS,11aR)-4,4-difluoro-1-[(2R)-6-(5-fluoro-3-methoxypyrazin-2-yl)-6-hydroxyhexan-2-yl]-9a,11a-dimethylhexadecahydro-1H-cyclopenta[1,2-a]phenanthrene-6,7-diol], the IC50 in data set [1] (Homo sapiens, Huh-7, 16 h) turned out to be 0.285 µM. The compound further displayed a solubility at 1 h in data set [2] of 280 µM (≈ 155 µg/mL).

On to `C[C@H](CCCC(O)c1cncc2c1OC(F)(F)O2)[C@H]1CC[C@H]2[C@H]3[C@H](CC[C@]12C)[C@@]1(C)CC[C@H](O)[C@H](O)[C@@H]1CC3(F)F` (stereo partly drawn) [Compound 297, (1R,3aS,3bS,5aR,6R,7 S,9aR,9bS,11aR)-1-[(2R)-6-(2,2-Difluoro[1,3]dioxolo[4,5-c]pyridin-7-yl)-6-hydroxyhexan-2-yl]-4,4-difluoro-9a,11a-dimethylhexadecahydro-1H-cyclopenta[1,2-a]phenanthrene-6,7-diol], for which the IC50 in data set [1] (Homo sapiens, Huh-7, 16 h) worked out at 0.197 µM. In addition, the solubility at 1 h in data set [2] was 19.5 µM (≈ 11.4 µg/mL).

`COc1cc(OC)c([C@@H](O)CCC[C@@H](C)[C@H]2CC[C@H]3[C@H]4[C@H](CC[C@]23C)[C@@]2(C)CC[C@H](O)[C@H](O)[C@@H]2CC4(F)F)c(F)n1` (single isomer, unassigned) [Compound 236]: the IC50 in data set [1] (Homo sapiens, Huh-7, 16 h) was determined as 0.079 µM. Also, in data set [2], the solubility at 1 h was 305 µM (≈ 178 µg/mL).

`C[C@H](CCCC(O)c1ccccc1F)[C@H]1CC[C@H]2[C@H]3[C@H](CC[C@]12C)[C@@]1(C)CC[C@H](O)[C@H](O)[C@@H]1CC3(F)F` (stereo partly drawn) [Compound 3, (1R,3aS,3bS,5aR,6R,7S,9aR,9bS,11aR)-4,4-difluoro-1-[(2R)-6-(2-fluorophenyl)-6-hydroxyhexan-2-yl]-9a,11a-dimethylhexadecahydro-1H-cyclopenta[1,2-a]phenanthrene-6,7-diol]: the IC50 in data set [1] (Homo sapiens, Huh-7, 16 h) amounted to 0.03 µM. Also, the solubility at 1 h in data set [2] is 247 µM (≈ 129 µg/mL).
